# Test system: MC38 hPD-L1 tumor cells
# Test: MC38 hPD-L1 tumor model in C57BL/6 mice
# Format: in vivo, mouse
# Procedure: Mouse MC38 tumor cells were stably transfected with human PD-L1 (MC38 hPD-L1) and implanted subcutaneously into C57BU6 mice. […] Tumor volume was tracked over time.
# 70 female C57CL/6 mice, containing similar tumor volumes of approximately 50-51 mm^3, following implantation of MC38 hPD-L1 tumor cells, were staged and divided into 5 treatment groups containing 14 mice each. […] Tumor volumes were measured on days 7, 10, and 12. On day 13, 5 animals were sacrificed for analysis as described in the sections below. Tumor measurements resumed for the remaining 9 mice for each group on days 17, 20 and 27. On days 26, 28, and 31, the animals in Group 1 (Fc isotype control) received an intratumoral injection of 100 μg E35D/M47L CD80-IgV-Fc.
# 95 female C57BU6 mice were implanted with MC38 hPD-L1 tumor cells. The tumors were staged on Day 7, and 77 mice with similar tumor volumes of approximately 60 mm^3 were divided into 7 treatment groups containing 11 mice each.
# On day 49, tumor-free mice, from Groups 3, 4, 6, and 7, and 2 naïve C57CL/6 mice were re-challenged with an additional injection of hPD-L1 MC38 cells. Tumor volumes were measured on days 56, 59, and 63. The results are depicted in FIG. 13. […] At day 59, 8/8 mice from Group 3, 1/2 mice from Group 4, 1/1 mouse from Group 6, and 2/2 mice from Group 7 were tumor-free, and by day 63, all mice in Group 3, Group 4, Group 6, and Group 7 were tumor-free.
# 75 animals were staged into 3 treatment groups 7 days after implantation with hPD-L1 MC38 tumor cells. […] Tumor volumes were measured every 3-4 days, from Day 11 until Day 35. 3 days after the 1st dose, 2nd dose and 3rd dose, 4 mice from each group were sacrificed for tumor and LN analyses, leaving 13 mice for tumor volume measurements throughout the study period.
# [1] = 3 injections of 100 μg on Days 8, 10 and 12
# [2] = re-challenged on day 49 with hPD-L1 MC38 cells
substance,measurement,setting,value
"H18Y/A26E/E35D/M47L/V68M/A71G/D90G: variant CD80 IgV-Fc (inert), IgV SEQ ID NO:491",mice with no detectable tumors (tumor-free) upon completion of the study,"100 μg on days 7, 9 and 11, 11 mice per group",8 mice
same,tumor-free mice at day 35,[1],6/13
same,tumor-free mice on Day 18,[1],6/13
same,tumor growth / tumor volume,"i.p. dosing, compared to Fc control or anti-PD-L1",greater decrease in the median and mean tumor volumes
same,"tumor-free mice after re-challenge, day 59",[2],8/8
same,"tumor-free mice after re-challenge, day 63",[2],tumor-free

# From patent US20220177587A1, “METHODS AND USES OF VARIANT CD80 FUSION PROTEINS AND RELATED CONSTRUCTS” (Alpine Immune Sciences, Inc., priority 2018, published 2022)
